Like-named read-outs stand apart in the source and are kept apart here.
Key:
human TASK-1 = biological target: T1, human TASK-1 (Homo sapiens, UniProt O14649); experiment: Whole-cell patch clamp on tsA201 cells expressing cloned human TASK-1; assay type: cell-based; details: for inhibition of human TASK-1 current: acute application; for EC50: tsA201 cells, whole-cell patch clamp, room temperature, read-out: EC50, inhibition of human TASK-1 current
T1 construct: expressed in transfected cells; host or cells: tsA201 (modified HEK293), transient transfection, pcDNA3.1+
T1 sequence (O14649 whole entry): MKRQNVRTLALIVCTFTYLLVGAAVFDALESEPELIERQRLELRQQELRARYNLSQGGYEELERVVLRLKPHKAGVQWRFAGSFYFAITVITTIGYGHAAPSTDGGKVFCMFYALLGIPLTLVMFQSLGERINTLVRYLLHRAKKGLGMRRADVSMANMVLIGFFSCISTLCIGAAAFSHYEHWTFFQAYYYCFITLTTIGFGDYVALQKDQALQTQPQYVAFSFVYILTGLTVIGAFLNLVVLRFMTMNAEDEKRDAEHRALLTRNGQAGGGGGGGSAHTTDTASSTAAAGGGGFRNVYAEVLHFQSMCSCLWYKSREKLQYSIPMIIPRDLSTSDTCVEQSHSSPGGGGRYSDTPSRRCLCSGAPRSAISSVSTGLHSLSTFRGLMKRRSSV
Experimental: (§1) Murine (mur) wild‐type (WT) TASK‐1 (KCNK3, Genbank^TM DQ185133) and WT murTASK‐3 (KCNK9, Genbank^TM AH009585.2) cDNA were cloned into pCS2^+ vector and were a kind gift from William Wisden (Imperial College, UK). Human WT TASK‐1 (Genbank^TM AF006823.1), WT TASK‐3 (Genbank^TM AF212829) and WT TASK‐2 (KCNK5, Genbank^TM AF084830.1) cDNA’s, were cloned into pcDNA3.1^+ vector (Invitrogen) and were a kind gift from Helen Meadows (GlaxoSmithKline).
(§2) All experiments were performed using a modified human embryonic kidney 293 cell line, tsA201 (ECACC; Sigma‐Aldrich), prepared and maintained as previously described.54
(§3) For the electrophysiological experiments, cells were transiently transfected using a modified calcium phosphate protocol, following a process as previously described.54 Vectors cloned with the gene of interest and a similar vector encoding the cDNA for GFP were added to each well at a concentration of 0.5 µg per well, with the exception being for murTASK‐3, where 0.125 µg per well was used.
(§4) Currents were recorded from tsA201 cells transiently transfected with the channel of interest using whole‐cell patch clamp in a voltage clamp configuration and a step‐ramp voltage protocol as previously described.54 Briefly, all experiments were conducted at room temperature (20‐24°C) using an external solution composed of 145 mM of NaCl, 2.5 mM of KCL, 3 mM of MgCl2, 1 mM of CaCl2 and 10 mM of HEPES (pH 7.4, using NaOH) and an intracellular pipette solution composed of 150 mM of KCL, 3 mM of MgCl2, 5 mM of EGTA and 10 mM of HEPES (pH adjusted to 7.4 with KOH). External solution and modulatory compounds were superfused at a rate of 4‐5 mL min^−1. Currents were recorded using an Axopatch 1D patch clamp amplifier (Molecular Devices), filtered at 0.3 kHz, digitized at 1 kHz.
(§5) For analysis of outward current, we measured the current difference between the −80 and −40 mV. The current‐voltage graphs were obtained from the ramp change in voltage between −120 and +20 mV. For each cell, the current amplitude (pA) was normalized to the cell capacitance (pF). The currents obtained were analysed using pCLAMP 10.2 software (Molecular Devices), Microsoft Excel and GraphPad Prism 6 or 7 software. Data were expressed as the mean ± 95% Confidence Intervals (CI), and n represents the number of individual cells. For EC50 calculations, concentration‐response curves were fitted using the Hill equation. Statistical analysis used were one‐way ANOVA with a post‐hoc Dunnett's test or an unpaired/paired Student's t test. Data were considered statistically different if P < .05. The data and statistical analysis comply with the recommendations on experimental design and analysis in pharmacology.55

human TASK-3 = biological target: T2, human TASK-3 (Homo sapiens, UniProt Q9NPC2); experiment: Whole-cell patch clamp on tsA201 cells expressing cloned human TASK-3; assay type: cell-based; details: for inhibition of human TASK-3 current: acute application; for EC50: tsA201 cells, whole-cell patch clamp, room temperature, read-out: EC50, inhibition of human TASK-3 current
T2 construct: expressed in transfected cells; host or cells: tsA201 (modified HEK293), transient transfection, pcDNA3.1+
T2 sequence (Q9NPC2 whole entry): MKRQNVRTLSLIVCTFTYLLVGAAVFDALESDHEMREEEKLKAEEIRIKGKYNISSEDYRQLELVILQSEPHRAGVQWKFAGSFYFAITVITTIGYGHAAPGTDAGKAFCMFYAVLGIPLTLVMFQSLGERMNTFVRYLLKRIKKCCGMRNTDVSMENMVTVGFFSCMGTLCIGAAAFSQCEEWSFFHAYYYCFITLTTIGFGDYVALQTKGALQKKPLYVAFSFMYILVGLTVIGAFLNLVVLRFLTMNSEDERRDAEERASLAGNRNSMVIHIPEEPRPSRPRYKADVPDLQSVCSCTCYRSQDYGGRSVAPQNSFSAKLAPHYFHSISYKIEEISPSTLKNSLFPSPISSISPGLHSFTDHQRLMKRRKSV
Experimental: as §1, §2, §3, §4, §5

[1] = opioid challenged cynomolgus monkeys, intravenous; cited from earlier work
[2] = opioid challenged rats, intravenous; cited from earlier work
murTASK-1 = biological target: T3, murTASK-1 (Mus musculus, UniProt O35111); experiment: Whole-cell patch clamp on tsA201 cells expressing cloned mouse TASK-1; assay type: cell-based; details: 10 µM, acute application
T3 construct: expressed in transfected cells; host or cells: tsA201 (modified HEK293), transient transfection, pCS2+
T3 sequence (O35111 whole entry): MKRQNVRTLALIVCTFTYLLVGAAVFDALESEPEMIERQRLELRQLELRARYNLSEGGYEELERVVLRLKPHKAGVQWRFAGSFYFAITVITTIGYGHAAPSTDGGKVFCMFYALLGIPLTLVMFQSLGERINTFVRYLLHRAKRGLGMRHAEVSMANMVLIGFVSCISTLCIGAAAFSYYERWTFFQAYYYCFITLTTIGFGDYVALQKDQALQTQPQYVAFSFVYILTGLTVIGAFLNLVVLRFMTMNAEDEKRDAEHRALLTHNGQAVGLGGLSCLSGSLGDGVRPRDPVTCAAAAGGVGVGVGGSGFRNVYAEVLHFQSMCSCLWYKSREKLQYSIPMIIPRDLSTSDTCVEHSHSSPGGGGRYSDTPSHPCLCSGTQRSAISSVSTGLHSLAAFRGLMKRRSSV
Experimental: as §1, §2, §3, §4, §5

murTASK-3 = biological target: T4, murTASK-3 (Mus musculus, UniProt Q3LS21); experiment: Whole-cell patch clamp on tsA201 cells expressing cloned mouse TASK-3; assay type: cell-based; details: 10 µM, acute application
T4 construct: expressed in transfected cells; host or cells: tsA201 (modified HEK293), transient transfection, pCS2+
T4 sequence (Q3LS21 whole entry): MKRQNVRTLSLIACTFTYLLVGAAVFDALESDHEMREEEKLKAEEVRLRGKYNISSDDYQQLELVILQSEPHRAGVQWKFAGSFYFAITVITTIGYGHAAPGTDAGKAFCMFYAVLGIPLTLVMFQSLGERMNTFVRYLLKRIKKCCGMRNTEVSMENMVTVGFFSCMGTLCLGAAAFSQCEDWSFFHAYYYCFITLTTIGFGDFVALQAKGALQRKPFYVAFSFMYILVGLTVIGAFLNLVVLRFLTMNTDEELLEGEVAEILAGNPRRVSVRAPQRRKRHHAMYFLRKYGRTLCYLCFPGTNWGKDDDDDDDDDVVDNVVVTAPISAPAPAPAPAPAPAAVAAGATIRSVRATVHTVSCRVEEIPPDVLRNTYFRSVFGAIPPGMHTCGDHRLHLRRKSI
Experimental: as §1, §2, §3, §4, §5

Row | inhibition of human TASK-1 current (human TASK-1; 10 µM) | inhibition of human TASK-1 current (human TASK-1; 100 µM) | inhibition of human TASK-1 current (human TASK-1; 300 µM) | EC50 (human TASK-1) | inhibition of human TASK-3 current (human TASK-3; 10 µM, WT) | inhibition of human TASK-3 current (human TASK-3; 100 µM, WT) | inhibition of human TASK-3 current (human TASK-3; 300 µM) | EC50 (human TASK-3) | current inhibition of murTASK-1 (murTASK-1) | inhibition of human TASK-1 current (human TASK-1; 1 µM) | inhibition of human TASK-1 current (human TASK-1; 3 µM) | current inhibition of murTASK-3 (murTASK-3) | inhibition of human TASK-3 current (human TASK-3; 1 µM) | inhibition of human TASK-3 current (human TASK-3; 3 µM) | Compound | effect on minute volume [1] | effect on minute volume [2]
1 | 3% | 24% | 47% | ~336 µM | 8% | 35% | 50% | ~286 µM | – | – | – | – | – | – | CCN1CC(CCN2CCOCC2)C(c2ccccc2)(c2ccccc2)C1=O (stereo not shown) [GAL‐053] | had no effect | had no effect
2 | 75% | – | – | ~1.6 µM | 79% | – | – | ~1.4 µM | 63% | 45% | 54% | 33% | 43% | 66% | CCN1CC(CCN2CCOCC2)C(c2ccccc2)(c2ccccc2)C1=O (stereo not shown) [GAL‐054] | dose‐dependently increased minute volume | dose‐dependently increased minute volume

— article PMC7003846, “Effects of the ventilatory stimulant, doxapram on human TASK‐3 (KCNK9, K2P9.1) channels and TASK‐1 (KCNK3, K2P3.1) channels” (Acta Physiologica (Oxford, England), 2019)
